Data set [1] concerns Acinetobacter calcoaceticus. Briefly: Antibacterial activity against Acinetobacter calcoaceticus assessed as inhibition of bacterial growth by two-fold serial broth dilution method. Format: functional.
Data set [2] has as its system Enterococcus faecalis. The data set can be described thus: Antibacterial activity against Enterococcus faecalis assessed as inhibition of bacterial growth by two-fold serial broth dilution method. Format: functional.
The subject of data set [3] is Listeria. Briefly: Antibacterial activity against Listeria sps. assessed as inhibition of bacterial growth by two-fold serial broth dilution method. The class given is functional.
The test system of data set [4] is Staphylococcus aureus. Briefly: Antibacterial activity against Staphylococcus aureus assessed as inhibition of bacterial growth by two-fold serial broth dilution method. The class given is functional.
Data set [5] has as its system Bacillus subtilis. Briefly: Antibacterial activity against Bacillus subtilis assessed as inhibition of bacterial growth by two-fold serial broth dilution method. Format: functional.
The subject of data set [6] is Salmonella enterica. Briefly: Antibacterial activity against Salmonella enterica assessed as inhibition of bacterial growth by two-fold serial broth dilution method. Format: functional.
Data set [7] relates to Escherichia coli. The data set can be described thus: Antibacterial activity against Escherichia coli assessed as inhibition of bacterial growth by two-fold serial broth dilution method. The class given is functional.
The subject of data set [8] is Serratia marcescens. Briefly: Antibacterial activity against Serratia marcescens assessed as inhibition of bacterial growth by two-fold serial broth dilution method. The class given is functional.
Data set [9] relates to Enterococcus faecalis. The data set can be described thus: Potency index, ratio of chloromycin MIC to test compound MIC for antibacterial activity against Enterococcus faecalis. The class given is functional.
For data set [10], the system named is Enterococcus faecalis. The data set can be described thus: Potency index, ratio of amoxicillin MIC to test compound MIC for antibacterial activity against Enterococcus faecalis. The class given is functional.
Data set [11] concerns MDA-MB-435. Briefly: Cytotoxicity against human MDA-MB-435 cells at 10 uM. Format: functional.
Data set [12] concerns HEK293. The data set can be described thus: Cytotoxicity against human HEK293 cells at 100 uM by MTT assay. Format: toxicity, cell-based. The settings on record: hek293, 100 µM.
The subject of data set [13] is MDA-MB-468. Briefly: Cytotoxicity against human MDA-MB-468 cells at 10 uM. The class given is functional.
Data set [14] has as its system COLO 205. Briefly: Cytotoxicity against human COLO 205 cells assessed as inhibition of cell growth at 10 uM. Format: functional.
Data set [15] relates to MOLT-4. Briefly: Cytotoxicity against human MOLT-4 cells assessed as inhibition of cell growth at 10 uM. The class given is functional.
Data set [16] relates to M14. Briefly: Cytotoxicity against human M14 cells assessed as inhibition of cell growth at 10 uM. Format: functional.
For data set [17], the system named is HEK293. Briefly: Cytotoxicity against human HEK293 cells at 10 uM by MTT assay. Format: toxicity, cell-based. Particulars: hek293, 10 µM.
Data set [18] relates to A498. The data set can be described thus: Cytotoxicity against human A498 cells at 10 uM. Format: functional.
The test system of data set [19] is HEK293. Briefly: Cytotoxicity against human HEK293 cells at 0.1 uM by MTT assay. Format: toxicity, cell-based. Particulars: hek293, 0.1 µM.
For data set [20], the system named is SK-MEL-5. Briefly: Cytotoxicity against human SK-MEL-5 cells assessed as inhibition of cell growth at 10 uM. The class given is functional.
The subject of data set [21] is HEK293. The data set can be described thus: Cytotoxicity against human HEK293 cells at 0.01 uM by MTT assay. Format: toxicity, cell-based. The settings on record: hek293, 0.01 µM.
The test system of data set [22] is HOP-92. The data set can be described thus: Cytotoxicity against human HOP-92 cells assessed as inhibition of cell growth at 10 uM. Format: functional.
Data set [23] relates to HEK293. The data set can be described thus: Cytotoxicity against human HEK293 cells at 1 uM by MTT assay. Format: toxicity, cell-based. The settings on record: hek293, 1 µM.

SMILES strings stand for the structures. In brackets after ≈: the same amount, converted by molar mass. Activity calls are given as the source filed them. No cut-off for these calls is given here.

For the compound `O=C1c2cccc3cccc(c23)C(=O)N1Nc1nc(NCc2ccc(F)cc2)nc(N2CCOCC2)n1`, the MIC was 100 µg/mL (≈ 200 µM) in data set [1]; 6.25 µg/mL (≈ 12.5 µM) in data set [2]; 200 µg/mL (≈ 400 µM) in data set [3]; 25 µg/mL (≈ 50 µM) in [4]; 100 µg/mL (≈ 200 µM) in data set [5]; 200 µg/mL (≈ 400 µM) in data set [6]. For the same compound, the MIC in [7] was found to be 100 µg/mL (≈ 200 µM); in data set [8], 200 µg/mL (≈ 400 µM).
On to `C=CCNc1nc(NN2C(=O)c3cccc4cccc(c34)C2=O)nc(N2CCOCC2)n1`, for which the MIC in [1] was 100 µg/mL (≈ 232 µM); in data set [2] it was 100 µg/mL (≈ 232 µM); in data set [3] it was 100 µg/mL (≈ 232 µM); in data set [4] it was 25 µg/mL (≈ 57.9 µM); in data set [5] it was 50 µg/mL (≈ 116 µM); in data set [6], 200 µg/mL (≈ 464 µM). Further, the MIC in [7] and in data set [8] was 200 µg/mL (≈ 464 µM) each time.
In the case of `O=C1c2cccc3cccc(c23)C(=O)N1Nc1nc(N2CCCCC2)nc(N2CCOCC2)n1`, the MIC in data set [1] was 200 µg/mL (≈ 435 µM); in [3] it was 50 µg/mL (≈ 109 µM); in [4] it was 1.56 µg/mL (≈ 3.39 µM); in [5], 6.25 µg/mL (≈ 13.6 µM); in [6], 200 µg/mL (≈ 435 µM); in data set [7] it was 400 µg/mL (≈ 870 µM). Besides, the MIC in [8] was 200 µg/mL (≈ 435 µM). Besides, the MIC result in data set [2] is “inactive”.
Take `O=C1c2cccc3cccc(c23)C(=O)N1Nc1nc(N2CCOCC2)nc(N2CCOCC2)n1`: the MIC was 200 µg/mL (≈ 433 µM) in data set [1]; 200 µg/mL (≈ 433 µM) in [2]; 200 µg/mL (≈ 433 µM) in data set [3]; 1.56 µg/mL (≈ 3.38 µM) in data set [4]; 100 µg/mL (≈ 217 µM) in data set [5]; 100 µg/mL (≈ 217 µM) in [6]. Moreover, the MIC in [7] and in data set [8] was 200 µg/mL (≈ 433 µM) throughout.
With `CC1(C)S[C@@H]2[C@H](NC(=O)[C@H](N)c3ccc(O)cc3)C(=O)N2[C@H]1C(=O)O` [AMOXICILLIN], the MIC in data set [1] was 50 µg/mL (≈ 137 µM); in [2], 1.56 µg/mL (≈ 4.27 µM); in data set [3], 50 µg/mL (≈ 137 µM); in data set [4], 25 µg/mL (≈ 68.4 µM); in data set [5], 50 µg/mL (≈ 137 µM); in data set [6] it was 200 µg/mL (≈ 547 µM). Also, the MIC in data set [7] amounted to 100 µg/mL (≈ 274 µM); in data set [8], 1.56 µg/mL (≈ 4.27 µM).
Turning to `O=C1c2cccc3cccc(c23)C(=O)N1Nc1nc(NCCN2CCOCC2)nc(N2CCOCC2)n1`, the MIC in [1] was 200 µg/mL (≈ 396 µM); in data set [2], 200 µg/mL (≈ 396 µM); in data set [3], 0.048 µg/mL (≈ 0.0951 µM); in data set [4], 3.12 µg/mL (≈ 6.18 µM); in data set [5], 200 µg/mL (≈ 396 µM); in [6], 200 µg/mL (≈ 396 µM). Moreover, the figures for the MIC in data set [7] and in data set [8] were 100 µg/mL (≈ 198 µM) and 50 µg/mL (≈ 99.1 µM), respectively.
Take `O=C1c2cccc3cccc(c23)C(=O)N1Nc1nc(N2CCOCC2)nc(N2CCN(Cc3ccccc3)CC2)n1`: the MIC in data set [1] was 200 µg/mL (≈ 363 µM); in data set [2], 200 µg/mL (≈ 363 µM); in data set [3], 6.25 µg/mL (≈ 11.4 µM); in data set [4] it was 100 µg/mL (≈ 182 µM); in [5], 200 µg/mL (≈ 363 µM); in data set [6] it was 200 µg/mL (≈ 363 µM). For the same compound, the MIC is 200 µg/mL (≈ 363 µM) in [7] and 50 µg/mL (≈ 90.8 µM) in data set [8].
For the compound `CCCCNc1nc(NN2C(=O)c3cccc4cccc(c34)C2=O)nc(N2CCOCC2)n1`, the MIC in data set [1] is 200 µg/mL (≈ 447 µM); in data set [2], 0.09 µg/mL (≈ 0.201 µM); in [3] it was 200 µg/mL (≈ 447 µM); in [4], 12.5 µg/mL (≈ 27.9 µM); in [5], 25 µg/mL (≈ 55.9 µM); in [6], 100 µg/mL (≈ 223 µM). The MIC in [7] was 400 µg/mL (≈ 894 µM); in data set [8], 200 µg/mL (≈ 447 µM). Also, the Ratio in data set [9] was found to be 34; in data set [10] it was 17.
Consider `O=C1c2cccc3cccc(c23)C(=O)N1Nc1nc(N2CCOCC2)nc(N2CCN(c3ccccc3)CC2)n1`, for which the MIC in [1] was 200 µg/mL (≈ 373 µM); in data set [2], 200 µg/mL (≈ 373 µM); in [3], 0.39 µg/mL (≈ 0.727 µM); in [4] it was 100 µg/mL (≈ 186 µM); in data set [5], 50 µg/mL (≈ 93.2 µM); in data set [6], 200 µg/mL (≈ 373 µM). Besides, the MIC in data set [8] worked out at 50 µg/mL (≈ 93.2 µM). Moreover, the Activity in data set [11] is reported as -12.6%; in data set [12] it was 10.08%; in data set [13] it was -15.85%; in data set [17], 12%; in [18], -3.13%; in [19], 13.57%. In addition, the Activity in [21] is reported as 14.05%; in data set [23], 13.01%. In addition, the inhibition at 10 µM in data set [14] was 96.5%; in [15], 81.6%; in [16], 80.6%; in data set [20], 95%; in data set [22] it was 92.5%. For the same compound, the MIC result in [7] was “inactive”.
Regarding `O=C1c2cccc3cccc(c23)C(=O)N1Nc1nc(NC2CCCCC2)nc(N2CCOCC2)n1`, the minimum inhibitory concentration (MIC) in [1] is 200 µg/mL (≈ 422 µM); in data set [2], 3.12 µg/mL (≈ 6.59 µM); in data set [3], 25 µg/mL (≈ 52.8 µM); in data set [4], 100 µg/mL (≈ 211 µM); in [5], 50 µg/mL (≈ 106 µM); in data set [6] it was 200 µg/mL (≈ 422 µM). Moreover, the MIC in data set [7] and in data set [8] was 200 µg/mL (≈ 422 µM) each time.
For the compound `CN(C)CCNc1nc(NN2C(=O)c3cccc4cccc(c34)C2=O)nc(N2CCOCC2)n1`, the MIC in data set [1] was 100 µg/mL (≈ 216 µM); in [2], 200 µg/mL (≈ 432 µM); in data set [3], 50 µg/mL (≈ 108 µM); in [4], 100 µg/mL (≈ 216 µM); in data set [5], 200 µg/mL (≈ 432 µM); in data set [6], 100 µg/mL (≈ 216 µM). Moreover, the results for the MIC in data set [7] and in data set [8] were 200 µg/mL (≈ 432 µM) and 25 µg/mL (≈ 54.1 µM), respectively.

These data come from ChEMBL document CHEMBL5620398, “Membrane-active substituted triazines as antibacterial agents against Staphylococcus aureus with potential for low drug resistance and broad activity” (Eur J Med Chem, 2023).
